In brackets after ≈: the same amount, converted by molar mass. Read-outs that look alike come from different tables or passages of the source.
Columns and labels:
Assay type in all cases: cell-based
[1] = system: Enterococcus faecalis 19433; assay: microbe, parasite or virus in culture; settings: 37° C., 24 h, read-out: Minimum Inhibitory Concentration, MIC
[2] = system: Staphylococcus aureus 703 (MRSA); assay: microbe, parasite or virus in culture; settings: 24 h, read-out: Minimum Inhibitory Concentration, MIC
Bacillus subtilis 82 = assay: microbe, parasite or virus in culture; settings: 37° C., 24 h, read-out: Minimum Inhibitory Concentration, MIC
MIC broth microdilution = settings: Microorganism 33, Dermatophytosis; 37° C., 24 h; read-out: Minimum Inhibitory Concentration, MIC
Oral candidiasis = assay: MIC broth microdilution; settings: Microorganism 32, Oral candidiasis; 37° C., 24 h; read-out: Minimum Inhibitory Concentration, MIC
[3] = system: Enterococcus faecalis 51299; assay: microbe, parasite or virus in culture; settings: Enterococcus faecalis, 51299, 24 h, read-out: Minimum Inhibitory Concentration, MIC
Bacillus cereus 246 = assay: microbe, parasite or virus in culture; settings: 37° C., 24 h, read-out: Minimum Inhibitory Concentration, MIC
[4] = system: Streptococcus pneumoniae 6303 (PRSP); assay: microbe, parasite or virus in culture; settings: 24 h, read-out: Minimum Inhibitory Concentration, MIC
[5] = system: Enterococcus fecal F631 (VRE); assay: organism not typed; settings: 24 h, read-out: Minimum Inhibitory Concentration, MIC
[6] = system: Enterococcus faecalis 29212; assay: microbe, parasite or virus in culture; settings: 37° C., 24 h, read-out: Minimum Inhibitory Concentration, MIC
[7] = system: Streptococcus agalactiae B; assay: microbe, parasite or virus in culture; settings: 37° C., 24 h, read-out: Minimum Inhibitory Concentration, MIC
Streptococcus 10342 = assay: MIC broth microdilution; settings: 37° C., 24 h, read-out: Minimum Inhibitory Concentration, MIC
[8] = system: Staphylococcus aureus 43300 (MRSA); assay: microbe, parasite or virus in culture; settings: 24 h, read-out: Minimum Inhibitory Concentration, MIC
[9] = system: Streptococcus pneumoniae 10351; assay: microbe, parasite or virus in culture; settings: 37° C., 24 h, read-out: Minimum Inhibitory Concentration, MIC
Bacillus cereus 2 = assay: microbe, parasite or virus in culture; settings: 37° C., 24 h, read-out: Minimum Inhibitory Concentration, MIC
[10] = system: Staphylococcus aureus 29231; assay: microbe, parasite or virus in culture; settings: 37° C., 24 h, read-out: Minimum Inhibitory Concentration, MIC
[11] = system: Staphylococcus aureus 704 (MRSA); assay: microbe, parasite or virus in culture; settings: 24 h, read-out: Minimum Inhibitory Concentration, MIC
[12] = system: Streptococcus pneumoniae 6301; assay: microbe, parasite or virus in culture; settings: 37° C., 24 h, read-out: Minimum Inhibitory Concentration, MIC
[13] = system: Staphylococcus aureus 705 (MRSA); assay: microbe, parasite or virus in culture; settings: 24 h, read-out: Minimum Inhibitory Concentration, MIC
[14] = system: Streptococcus pneumoniae M2; assay: microbe, parasite or virus in culture; settings: 37° C., 24 h, read-out: Minimum Inhibitory Concentration, MIC
[15] = system: Enterococcus faecalis 1513 (VRE); assay: microbe, parasite or virus in culture; settings: 24 h, read-out: Minimum Inhibitory Concentration, MIC
[16] = system: Streptococcus pneumoniae 62; assay: microbe, parasite or virus in culture; settings: 37° C., 24 h, read-out: Minimum Inhibitory Concentration, MIC
Clostridium tetani = assay: microbe, parasite or virus in culture; settings: 24 h
[17] = system: Corynebacterium diphtheriae; assay: microbe, parasite or virus in culture; settings: 37° C., 24 h, read-out: Minimum Inhibitory Concentration, MIC
Bacillus subtilis 168 = assay: microbe, parasite or virus in culture; settings: 37° C., 24 h, read-out: Minimum Inhibitory Concentration, MIC
Clostridium perfringens = assay: microbe, parasite or virus in culture; settings: 24 h, read-out: Minimum Inhibitory Concentration, MIC
[18] = system: Streptococcus bovis 10035; assay: microbe, parasite or virus in culture; settings: Streptococcus equinus, 37° C., 24 h, read-out: Minimum Inhibitory Concentration, MIC
[19] = system: Enterococcus faecalis 583 (VRE); assay: microbe, parasite or virus in culture; settings: 24 h, read-out: Minimum Inhibitory Concentration, MIC
Pyogenic Streptococcus = assay: microbe, parasite or virus in culture; settings: 37° C., 24 h, read-out: Minimum Inhibitory Concentration, MIC
green Streptococcus 1009 = assay: microbe, parasite or virus in culture; settings: 37° C., 24 h, read-out: Minimum Inhibitory Concentration, MIC
[20] = system: Enterococcus faecalis F2518 (VRE); assay: microbe, parasite or virus in culture; settings: 24 h, read-out: Minimum Inhibitory Concentration, MIC
Bacillus anthracis 1 = assay: microbe, parasite or virus in culture; settings: Bacillus anthracis, 1, 24 h, read-out: Minimum Inhibitory Concentration, MIC
Gram-positive Bacteria = system: Gram-positive Bacteria
[21] = read-out: Minimum Inhibitory Concentration, MIC, Microorganism 29, Clostridium tetani, 37° C.
[22] = read-out: Minimum Inhibitory Concentration, MIC, Microorganism 30, Clostridium tetani (second line of that name), 37° C.
[23] = the majority of Bacillus cereus, Bacillus subtilis and Enterococcus faecalis

Structure (SMILES) | MIC [1] [µM] | MIC [2] [µM] | MIC (Bacillus subtilis 82) [µM] | MIC (MIC broth microdilution) [µM] | MIC (Oral candidiasis) [µM] | MIC [3] [µM] | MIC (Bacillus cereus 246) [µM] | MIC [4] [µM] | MIC [5] [µM] | MIC [6] [µM] | MIC [7] [µM] | MIC (Streptococcus 10342) [µM] | MIC [8] [µM] | MIC [9] [µM] | MIC (Bacillus cereus 2) [µM] | MIC [10] [µM] | MIC [11] [µM] | MIC [12] [µM] | MIC [13] [µM] | MIC [14] [µM] | further results
Nc1nc(-c2ccccc2)nc2c1cnn2-c1ccccc1 [Compound 38] | 108 (≈ 31.2 µg/mL) | 215 (≈ 61.8 µg/mL) | 120 (≈ 34.5 µg/mL) | 121 (≈ 34.8 µg/mL) | 150 (≈ 43.2 µg/mL) | 106 (≈ 30.6 µg/mL) | 154 (≈ 44.3 µg/mL) | 125 (≈ 35.9 µg/mL) | 151 (≈ 43.4 µg/mL) | 145 (≈ 41.7 µg/mL) | 105 (≈ 30.2 µg/mL) | 131 (≈ 37.7 µg/mL) | 210 (≈ 60.4 µg/mL) | 136 (≈ 39.2 µg/mL) | 124 (≈ 35.5 µg/mL) | 100 (≈ 28.8 µg/mL) | 160 (≈ 46.1 µg/mL) | 141 (≈ 40.4 µg/mL) | 210 (≈ 60.4 µg/mL) | 156 (≈ 44.9 µg/mL) | MIC [15]: 150 µM (≈ 43.2 µg/mL); MIC [16]: 140 µM (≈ 40.4 µg/mL); MIC (Clostridium tetani; [21]): 160 µM (≈ 46.1 µg/mL); MIC (Clostridium tetani; [22]): 120 µM (≈ 34.6 µg/mL); MIC [17]: 150 µM (≈ 43.2 µg/mL); MIC (Bacillus subtilis 168): 212 µM (≈ 61.1 µg/mL); MIC (Clostridium perfringens): 125 µM (≈ 35.9 µg/mL); MIC [18]: 121 µM (≈ 34.9 µg/mL); MIC [19]: 160 µM (≈ 46.1 µg/mL); MIC (Pyogenic Streptococcus): 126 µM (≈ 36.3 µg/mL); MIC (green Streptococcus 1009): 101 µM (≈ 29.1 µg/mL); MIC [20]: 116 µM (≈ 33.2 µg/mL); MIC (Bacillus anthracis 1): 266 µM (≈ 76.4 µg/mL)
Cc1nn2c(=O)cc(-c3ccc(C(F)(F)F)nc3)[nH]c2c1-c1ccc(Cl)cc1Cl [Compound 8] | 11.5 (≈ 5.05 µg/mL) | 1.23 (≈ 0.54 µg/mL) | 1.35 (≈ 0.593 µg/mL) | 31.8 (≈ 14 µg/mL) | 20.3 (≈ 8.92 µg/mL) | 0.36 (≈ 0.158 µg/mL) | 2.6 (≈ 1.14 µg/mL) | 1.23 (≈ 0.54 µg/mL) | 0.04 (≈ 0.0176 µg/mL) | 0.66 (≈ 0.29 µg/mL) | 0.56 (≈ 0.246 µg/mL) | 0.3 (≈ 0.132 µg/mL) | 0.6 (≈ 0.264 µg/mL) | 0.04 (≈ 0.0176 µg/mL) | 0.65 (≈ 0.285 µg/mL) | 10.3 (≈ 4.52 µg/mL) | 10.3 (≈ 4.52 µg/mL) | 2.5 (≈ 1.1 µg/mL) | 50.6 (≈ 22.2 µg/mL) | 1.25 (≈ 0.549 µg/mL) | inhibition of growth (conclusion from MICs) (Gram-positive Bacteria; Enterococcus faecalis (VRE), Staphylococcus aureus (MRSA), Streptococcus pneumoniae 6303 (PRSP), Bacillus cereus, Bacillus subtilis, Enterococcus faecalis, Staphylococcus aureus, Streptococcus pneumoniae, Streptococcus agalactiae B and streptococci 4): significantly inhibited the growth; MIC [15]: 0.16 µM (≈ 0.0703 µg/mL); MIC [16]: 0.63 µM (≈ 0.277 µg/mL); MIC (Clostridium tetani; [21]): 70.3 µM (≈ 30.9 µg/mL); MIC (Clostridium tetani; [22]): 50.6 µM (≈ 22.2 µg/mL); MIC [17]: 30.3 µM (≈ 13.3 µg/mL); MIC (Bacillus subtilis 168): 0.66 µM (≈ 0.29 µg/mL); MIC (Clostridium perfringens): 61.3 µM (≈ 26.9 µg/mL); MIC [18]: 10.5 µM (≈ 4.61 µg/mL); MIC [19]: 0.31 µM (≈ 0.136 µg/mL); MIC (Pyogenic Streptococcus): 0.63 µM (≈ 0.277 µg/mL); MIC (green Streptococcus 1009): 0.3 µM (≈ 0.132 µg/mL); MIC [20]: 0.32 µM (≈ 0.141 µg/mL); MIC (Bacillus anthracis 1): 56.8 µM (≈ 24.9 µg/mL)
O=C1C(c2ccccc2)C(O)=Nc2cc(-c3ccc(C(F)(F)F)cc3)nn21 (stereo not drawn) [Compound 42] | 18.2 (≈ 6.76 µg/mL) | 172 (≈ 63.9 µg/mL) | 0.02 (≈ 0.00743 µg/mL) | 52.1 (≈ 19.3 µg/mL) | 21.3 (≈ 7.91 µg/mL) | 21.2 (≈ 7.87 µg/mL) | 0.23 (≈ 0.0854 µg/mL) | 203 (≈ 75.4 µg/mL) | 21.2 (≈ 7.87 µg/mL) | 20.5 (≈ 7.61 µg/mL) | 0.55 (≈ 0.204 µg/mL) | 15.5 (≈ 5.76 µg/mL) | 150 (≈ 55.8 µg/mL) | 1.25 (≈ 0.464 µg/mL) | 0.25 (≈ 0.0928 µg/mL) | 0.28 (≈ 0.104 µg/mL) | 230 (≈ 85.5 µg/mL) | 0.23 (≈ 0.0854 µg/mL) | 180 (≈ 66.9 µg/mL) | 0.02 (≈ 0.00743 µg/mL) | inhibition of growth (conclusion from MICs) (Gram-positive Bacteria; [23]): significantly inhibited the growth; MIC [15]: 20.1 µM (≈ 7.46 µg/mL); MIC [16]: 0.25 µM (≈ 0.0928 µg/mL); MIC (Clostridium tetani; [21]): 30.2 µM (≈ 11.2 µg/mL); MIC (Clostridium tetani; [22]): 80.3 µM (≈ 29.8 µg/mL); MIC [17]: 32 µM (≈ 11.9 µg/mL); MIC (Bacillus subtilis 168): 1.23 µM (≈ 0.457 µg/mL); MIC (Clostridium perfringens): 2.01 µM (≈ 0.746 µg/mL); MIC [18]: 1.28 µM (≈ 0.475 µg/mL); MIC [19]: 30.3 µM (≈ 11.3 µg/mL); MIC (Pyogenic Streptococcus): 1.23 µM (≈ 0.457 µg/mL); MIC (green Streptococcus 1009): 1.25 µM (≈ 0.464 µg/mL); MIC [20]: 18.2 µM (≈ 6.76 µg/mL); MIC (Bacillus anthracis 1): 32.5 µM (≈ 12.1 µg/mL)
CCc1nn2c(=O)cc(-c3ccc(C#N)cc3)[nH]c2c1-c1ccc(Cl)cc1Cl [Compound 5] | 2.01 (≈ 0.823 µg/mL) | 135 (≈ 55.4 µg/mL) | 0.04 (≈ 0.0164 µg/mL) | 33.5 (≈ 13.7 µg/mL) | 52.1 (≈ 21.3 µg/mL) | 0.3 (≈ 0.123 µg/mL) | 0.3 (≈ 0.123 µg/mL) | 105 (≈ 43.1 µg/mL) | 19.2 (≈ 7.86 µg/mL) | 0.16 (≈ 0.0655 µg/mL) | 0.16 (≈ 0.0655 µg/mL) | 1.33 (≈ 0.544 µg/mL) | 213 (≈ 87.3 µg/mL) | 1.25 (≈ 0.512 µg/mL) | 10.5 (≈ 4.3 µg/mL) | 5.31 (≈ 2.17 µg/mL) | 150 (≈ 61.5 µg/mL) | 0.3 (≈ 0.123 µg/mL) | 123 (≈ 50.4 µg/mL) | 0.04 (≈ 0.0164 µg/mL) | inhibition of growth (conclusion from MICs) (Gram-positive Bacteria; [23]): significantly inhibited the growth; MIC [15]: 35.2 µM (≈ 14.4 µg/mL); MIC [16]: 10.5 µM (≈ 4.3 µg/mL); MIC (Clostridium tetani; [21]): 50.3 µM (≈ 20.6 µg/mL); MIC (Clostridium tetani; [22]): 23.2 µM (≈ 9.5 µg/mL); MIC [17]: 26.1 µM (≈ 10.7 µg/mL); MIC (Bacillus subtilis 168): 0.12 µM (≈ 0.0491 µg/mL); MIC (Clostridium perfringens): 55.3 µM (≈ 22.6 µg/mL); MIC [18]: 2.01 µM (≈ 0.823 µg/mL); MIC [19]: 32.1 µM (≈ 13.1 µg/mL); MIC (Pyogenic Streptococcus): 20.1 µM (≈ 8.23 µg/mL); MIC (green Streptococcus 1009): 0.31 µM (≈ 0.127 µg/mL); MIC [20]: 31.3 µM (≈ 12.8 µg/mL); MIC (Bacillus anthracis 1): 52.4 µM (≈ 21.4 µg/mL)

From patent publication US20120178915A1, “PYRIMIDINE DERIVATIVES AND ANALOGS, PREPARATION METHOD AND USE THEREOF” (priority 2009, published 2012)
